TGI and GI50 data for eight molecules are collected here from PubChem BioAssay (NCI).

In general, TGI refers to the concentration at which net growth stops. A lower TGI goes with more potent growth arrest. In general, GI50 refers to the concentration at which growth is held to half of that of the control.

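In this assay, cells in 96-well plates receive the compound at five concentrations for 48 hours. Endpoints are linearly interpolated between the surrounding concentrations. GI50 is the concentration that inhibits growth by half. At the TGI there is no net growth.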

Some test systems named below: MDA-MB-231 breast; MALME-3M melanoma; T-47D breast; PC-3 prostate; UACC-62 melanoma; SW-620 colon; M14 melanoma; TK-10 renal; HCT-15 colon; SK-MEL-5 melanoma.
What all share (assay): DTP human tumour cell line panel, 48 h

With `COC(=O)C#Cc1ccc([N+](=O)[O-])cc1`, the concentration for total growth inhibition (TGI) with MDA-MB-231 breast came to 4.08 µM; in the assay on MALME-3M melanoma, 4.41 µM; in the assay on T-47D breast, 11.4 µM; in the assay with PC-3 prostate, 13.1 µM; in the assay on UACC-62 melanoma, 6.86 µM; in the assay with SW-620 colon, 3.78 µM. Also, the concentration for total growth inhibition (TGI) turned out to be 4.96 µM in the assay on M14 melanoma, 3.79 µM in the assay with TK-10 renal, 1.6 µM with HCT-15 colon and 6.18 µM in the assay with SK-MEL-5 melanoma.

On to `CC(=O)OCC1OC(S[As](C)C)C(OC(C)=O)C1OC(C)=O` (centres undefined), for which the 50% growth inhibitory concentration (GI50) with MDA-MB-231 breast was 0.404 µM; in the assay on MALME-3M melanoma, 0.107 µM; in the assay with T-47D breast it was 0.62 µM; in the assay on PC-3 prostate, 1.11 µM; in the assay with UACC-62 melanoma, 0.357 µM; with SW-620 colon, 0.302 µM. For the same molecule, the GI50 is 0.193 µM in the assay on M14 melanoma, 0.231 µM in the assay with TK-10 renal, 0.256 µM with HCT-15 colon and 0.162 µM in the assay with SK-MEL-5 melanoma. For the same molecule, the TGI with MDA-MB-231 breast was determined as 2.34 µM; in the assay on MALME-3M melanoma, 0.696 µM; in the assay with T-47D breast it was 17.3 µM; with PC-3 prostate it was 13.1 µM; in the assay with UACC-62 melanoma, 1.52 µM; with SW-620 colon, 1.47 µM. The concentration for total growth inhibition (TGI) in the assay on M14 melanoma is 0.726 µM; with TK-10 renal it was 0.843 µM; with HCT-15 colon it was 1.08 µM; in the assay with SK-MEL-5 melanoma it was 0.385 µM.

With `CN1CCN(Cc2ccc(Nc3ncc(Cl)c(Nc4ccccc4S(=O)(=O)N(C)C)n3)cc2)CC1`, the concentration for 50% growth inhibition (GI50) was 0.0222 µM in the assay on MDA-MB-231 breast; 0.092 µM in the assay with MALME-3M melanoma; 0.116 µM in the assay with T-47D breast; 0.0731 µM in the assay on PC-3 prostate; 0.0229 µM in the assay with UACC-62 melanoma; 0.0254 µM in the assay on SW-620 colon. Also, the values for the GI50 with M14 melanoma, in the assay with TK-10 renal and in the assay on SK-MEL-5 melanoma were 0.0608 µM, 0.0819 µM and 0.0759 µM, respectively. For the same molecule, the TGI in the assay on MDA-MB-231 breast is 0.376 µM; in the assay with MALME-3M melanoma, 0.379 µM; in the assay on T-47D breast it was 0.965 µM; in the assay on PC-3 prostate, over 100 µM; in the assay on UACC-62 melanoma, 0.18 µM; in the assay with SW-620 colon, over 100 µM. Further, the TGI in the assay on M14 melanoma is 0.277 µM; in the assay on TK-10 renal, 1.19 µM; with SK-MEL-5 melanoma, 0.387 µM.

Turning to `C/C(=C\c1ccn(-c2ccc(N)cc2)n1)[C@@H]1C[C@@H]2O[C@]2(C)CCC[C@H](C)[C@H](O)[C@@H](C)C(=O)C(C)(C)[C@@H](O)CC(=O)O1`, the GI50 in the assay with MDA-MB-231 breast was 0.252 µM; in the assay on MALME-3M melanoma, 0.125 µM; in the assay with T-47D breast, 0.028 µM; with PC-3 prostate, 0.0313 µM; in the assay on UACC-62 melanoma it was 0.157 µM; with SW-620 colon it was 0.0248 µM. The 50% growth inhibitory concentration (GI50) is 0.124 µM with TK-10 renal, 0.0297 µM with HCT-15 colon and 0.0308 µM in the assay on SK-MEL-5 melanoma. The TGI with MDA-MB-231 breast, in the assay with MALME-3M melanoma, in the assay on T-47D breast, in the assay with PC-3 prostate, in the assay with UACC-62 melanoma and in the assay with SW-620 colon was over 50 µM in each case. Besides, the TGI with TK-10 renal, in the assay on HCT-15 colon and with SK-MEL-5 melanoma was over 50 µM each time.

With `Cc1ccc2sc3c(NCCCNCCO)nc4ccccc4c3c(=O)c2c1`, the GI50 in the assay on MDA-MB-231 breast was 1.56 µM; with MALME-3M melanoma it was 1.69 µM; in the assay with T-47D breast, 1.59 µM; in the assay on PC-3 prostate it was 1.38 µM; in the assay on UACC-62 melanoma it was 1.69 µM; with SW-620 colon, 1.62 µM. Besides, the values for the GI50 in the assay with M14 melanoma, in the assay on HCT-15 colon and in the assay with SK-MEL-5 melanoma were 1.61 µM, 1.48 µM and 1.78 µM, respectively. In addition, the TGI with MDA-MB-231 breast was 3.04 µM; in the assay with MALME-3M melanoma, 3.18 µM; with T-47D breast, 3.43 µM; in the assay with PC-3 prostate, 2.87 µM; in the assay with UACC-62 melanoma, 3.14 µM; in the assay on SW-620 colon, 3.13 µM. Also, the results for the TGI in the assay with M14 melanoma, in the assay with HCT-15 colon and in the assay with SK-MEL-5 melanoma were 3.06 µM, 2.92 µM and 3.25 µM, respectively.

For the molecule `CC1(C)C2CCC13C(=O)C1OC3(C2)C2C(=O)c3c(O)ccc(O)c3C(=O)C12` (centres undefined), the GI50 in the assay with MDA-MB-231 breast was 44.2 µM; with MALME-3M melanoma, 18.3 µM; in the assay with T-47D breast it was 36.7 µM; in the assay on PC-3 prostate, 30.8 µM; in the assay with UACC-62 melanoma, 97.1 µM; with M14 melanoma, 14.1 µM. The GI50 in the assay on TK-10 renal is 26.1 µM; in the assay with HCT-15 colon, 18.5 µM; with SK-MEL-5 melanoma, 13.4 µM. For the same molecule, the TGI with MDA-MB-231 breast was over 70.3 µM; in the assay on MALME-3M melanoma, 50.6 µM; in the assay on T-47D breast, over 64.8 µM; with PC-3 prostate, 98.5 µM; in the assay with UACC-62 melanoma, over 100 µM; in the assay with M14 melanoma, 29.2 µM. The TGI with TK-10 renal is 69 µM; in the assay on HCT-15 colon, over 54 µM; in the assay on SK-MEL-5 melanoma it was 41.5 µM.

With `CCN(CC)CCOc1cc2c(C(=O)OC)c(C)oc2cc1C(C)=O`, the GI50 with MDA-MB-231 breast was 10.8 µM; with T-47D breast it was 2.25 µM; in the assay on PC-3 prostate, 3.97 µM; in the assay with UACC-62 melanoma it was 9.4 µM; with SW-620 colon, 7.56 µM; in the assay on M14 melanoma it was 4.53 µM. The values for the GI50 with TK-10 renal, with HCT-15 colon and in the assay with SK-MEL-5 melanoma were 16.8 µM, 10.5 µM and 6.62 µM, respectively. Moreover, the TGI was 23.5 µM in the assay on MDA-MB-231 breast; 7.75 µM with T-47D breast; 13.7 µM in the assay with PC-3 prostate; 21.5 µM with UACC-62 melanoma; 23.9 µM in the assay with SW-620 colon; 16.9 µM in the assay with M14 melanoma. The TGI in the assay on TK-10 renal is 31.4 µM; with HCT-15 colon, 22.7 µM; with SK-MEL-5 melanoma, 19 µM.

Take `CCOC(=O)c1cc2ncccc2c2ccccc12`: the TGI with MDA-MB-231 breast, with MALME-3M melanoma, in the assay with T-47D breast, with PC-3 prostate, in the assay with UACC-62 melanoma and in the assay with M14 melanoma was over 100 µM throughout. Further, the total growth inhibition concentration (TGI) in the assay with TK-10 renal, with HCT-15 colon and with SK-MEL-5 melanoma was over 100 µM throughout.
